IC50 data for 46 compounds are collected here from patent US12398111B2, “Triazine compounds and pharmaceutical use thereof” (Japan Tobacco Inc., priority 2014, dated 2025).

SMILES strings stand for the structures.

For orientation: IC50 means the concentration needed to halve the response being measured. A high value points to weaker potency in that assay.

The target in the assay is T1, human mPGES-1 (Homo sapiens, UniProt O14684).
T1 construct: made in house; host or cells: FreeStyle CHO-S cells (Chinese hamster ovary), transient transfection with pcDNA3.1(+)/human mPGES-1; microsome fraction used
T1 sequence (O14684 1-152): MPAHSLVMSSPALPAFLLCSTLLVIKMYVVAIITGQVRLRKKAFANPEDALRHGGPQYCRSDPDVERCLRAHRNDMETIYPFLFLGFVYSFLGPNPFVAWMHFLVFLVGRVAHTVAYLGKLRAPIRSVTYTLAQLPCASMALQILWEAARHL
As to the kind of experiment: Evaluation of human mPGES-1 enzyme inhibitory activity (PGE2 measured by HTRF, microsome fraction of CHO-S cells expressing human mPGES-1). The format is biochemical. The settings on record: IC50 value; microsome fraction of CHO-S cells expressing human mPGES-1, PGE2 by HTRF. The essentials:
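Enzyme source: microsomes from CHO-S cells transfected with human mPGES-1 and cultured 48 hr, diluted to 5 μg/mL protein in reduced GSH (12.5 mmol/L KPB solution). Test articles were in 0.1 mol/L potassium phosphate pH 7.4, final DMSO 2% (v/v). PGE2 formed was quantified by HTRF.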
In general terms: Time-resolved FRET reads energy transfer from a long-lived donor to a nearby acceptor.
For the compound `Oc1nc(-c2ccc(OCC3CCCCC3)cc2)nc(-c2c(Cl)cccc2OCc2ccccn2)n1` [Example 2-77], half-maximal inhibition (IC50) required 3.7 nM.

Compound `CN(Cc1ccc(Cl)c(-c2nc(O)nc(-c3ccccc3)n2)c1)C(=O)C1Cc2ccccc2C1` [Example 1-246] gave a half-maximal inhibitory concentration (IC50) of 307 nM. `CC(C)(C)C(=O)NCc1ccc(Cl)c(-c2nc(O)nc(-c3cccc(OC(F)(F)F)c3)n2)c1` [Example 1-61] had an IC50 of 0.7 nM. This IC50 lies about 440-fold lower than the previous one. Consider `CC(C)OC(=O)NCc1ccc(Cl)c(-c2nc(O)nc(-c3ccc(C(F)(F)F)cc3)n2)c1` [Example 1-39], for which the half-inhibitory concentration (IC50) was determined as 1.9 nM. With `CC(C)(C)COc1ccc(-c2nc(O)nc(-c3cc(CCNC(=O)C(C)(C)C(F)(F)F)ccc3Cl)n2)cc1` [Example 1-203], the IC50 was 20 nM. As to `CC(C)(C(=O)NCc1ccc(Cl)c(-c2nc(O)nc(-c3ccc(O)cc3)n2)c1)C(F)(F)F` [Example 1-134], the concentration for half-maximal inhibition (IC50) is 4 nM. This IC50 is about 5-fold lower than that of the compound before. Compound `Cc1cc(-c2nc(O)nc(-c3cc(CNC(=O)C(C)(C)C(F)(F)F)ccc3Cl)n2)ccc1C(F)(F)F` [Example 1-147] came in with a 50% inhibitory concentration (IC50) of 0.8 nM. `Cc1cc(C)nc(COc2cccc(C(F)(F)F)c2-c2nc(O)nc(-c3ccc(C#Cc4ccccc4)cc3)n2)c1` [Example 2-110] returned a half-inhibitory concentration (IC50) of 7.4 nM. Compared with the last compound, the IC50 is about 9.2-fold higher. `CNC(=O)Cc1ccc(Cl)c(-c2nc(O)nc(-c3ccc(C(F)(F)F)cc3)n2)c1` [Example 1-26] yielded a half-inhibitory concentration (IC50) of 18 nM. As to `CCCCNC(=O)c1cc(-c2nc(O)nc(-c3ccc(OCC4CC4)cc3)n2)c(Cl)cc1C` [Example 3-23], 41 nM corresponded to half-maximal inhibition (IC50). `CN(CCc1ccc(Cl)c(-c2nc(O)nc(-c3ccc(OCC(C)(C)C)cc3)n2)c1)C(=O)C(C)(C)C(F)(F)F` [Example 1-227] showed an IC50 of 50 nM. With `COCCOc1ccc(-c2nc(O)nc(-c3cc(CNC(=O)C(C)(C)C(F)(F)F)ccc3Cl)n2)cc1` [Example 1-144] the figure was 0.9 nM; with `CC(C)(C)COc1ccc(-c2nc(O)nc(-c3cc(CNC(=O)C(C)(C)C(F)(F)F)ccc3Cl)n2)cc1` [Example 1-86, N-(4-chloro-3-{4-[4-(2,2-dimethylpropoxy)phenyl]-6-hydroxy-1,3,5-triazin-2-yl}benzyl)-3,3,3-trifluoro-2,2-dimethylpropionamide], 5.8 nM. Turning to `Cc1cc(-c2nc(O)nc(-c3cc(CNC(=O)C(C)(C)CC(F)(F)F)ccc3Cl)n2)ccc1F` [Example 1-183], the midpoint of inhibition, the IC50, lay at 1.3 nM. Compared with the last compound, the IC50 is about 4.5-fold lower.

Compound `Cc1ccnc(COc2cccc(C(F)(F)F)c2-c2nc(O)nc(-c3ccc(C#Cc4ccccc4)cc3)n2)c1` [Example 2-113] had an IC50 of 5.1 nM. For `CN(Cc1ccc(Cl)c(-c2nc(O)nc(-c3ccc(OCC(C)(C)C)cc3)n2)c1)S(=O)(=O)C(C)(C)C` [Example 1-223] the value was 7 nM; for `COc1cccc(-c2nc(O)nc(-c3c(C)cccc3C)n2)c1` [Example 2-14], 14300 nM; for `CC(C)CC(=O)N(C)Cc1ccc(Cl)c(-c2nc(O)nc(-c3ccccc3)n2)c1` [Example 1-226], 2200 nM.

Compound `Cc1cc(Cl)c(-c2nc(O)nc(-c3ccc(OCC4CC4)cc3)n2)cc1C(=O)N(C)C` [Example 3-22] gave a half-maximal inhibitory concentration (IC50) of 6900 nM. With `CCOc1ccc(-c2nc(O)nc(-c3c(C)cccc3C)n2)cc1` [Example 2-40], the IC50 is 1300 nM. As for `Cc1ccc(CNC(=O)C(C)(C)C)cc1-c1nc(O)nc(-c2ccc(C(F)(F)F)cc2)n1` [Example 1-48], 0.9 nM corresponded to half-maximal inhibition (IC50).

Take `CC(C)Cc1ccc(-c2nc(O)nc(-c3cc(CN(C)C(=O)C(C)(C)C(F)(F)F)ccc3Cl)n2)cc1` [Example 1-206]: the IC50 came out at 14 nM.

For the compound `Cc1cccc(C)c1-c1nc(O)nc(-c2ccc(OCc3ccccc3)nc2)n1` [Example 2-59], the IC50 stood at 95 nM.

In turn, `O=C(NCc1ccc(Cl)c(-c2nc(O)nc(-c3ccccc3)n2)c1)C1CCC1` [Example 1-66] had an IC50 of 4.1 nM. With `Cc1cccc(C)c1-c1nc(O)nc(-c2ccc(Cl)c(OCc3ccccc3)c2)n1` [Example 2-48], inhibition was half-maximal at 19 nM (IC50). `CCCc1ccc(-c2nc(O)nc(-c3cc(CNC(=O)C(C)(C)C)ccc3Cl)n2)cc1` [Example 1-44] came in with a 50% inhibitory concentration (IC50) of 0.6 nM. This IC50 is about 32-fold lower than that of the compound before. In turn, `COc1ccc(F)c(Cl)c1-c1nc(O)nc(-c2ccc(C(F)(F)F)cc2)n1` [Example 3-11] registered a half-maximal inhibitory concentration (IC50) of 93 nM. With `CN(Cc1ccc(Cl)c(-c2nc(O)nc(-c3ccc(OCC4CCCCC4)cc3)n2)c1)C(=O)C(C)(C)C(F)(F)F` [Example 1-211] the figure was 63 nM; with `COc1cccc(COc2cccc(C(F)(F)F)c2-c2nc(O)nc(-c3ccc(C#Cc4ccccc4)cc3)n2)n1` [Example 2-118], 7.1 nM.

Compound `CCC(CC)C(=O)NCc1ccc(Cl)c(-c2nc(O)nc(-c3ccc(OCC4CC4)cc3)n2)c1` [Example 1-171] yielded an IC50 of 0.5 nM. `CO[C@](C)(C(=O)NCc1ccc(Cl)c(-c2nc(O)nc(-c3ccc(CC(C)C)cc3)n2)c1)C(F)(F)F` [Example 1-177] returned a concentration for half-maximal inhibition (IC50) of 1.3 nM.

For the compound `CC(C)(C)COc1ccc(-c2nc(O)nc(-c3c(Cl)cccc3OCc3ncccn3)n2)cc1` [Example 2-68], half-maximal inhibition (IC50) was put at 672 nM.

Regarding `CCC[C@@H](C)Oc1ccc(-c2nc(O)nc(-c3cc(CNC(=O)C(C)(C)C(F)(F)F)ccc3Cl)n2)cc1` [Example 1-156], the IC50 was 4.1 nM. For `CC(C)(C(=O)NCc1ccc(Cl)c(-c2nc(O)nc(-c3ccc(OCCC(F)(F)F)cc3)n2)c1)C(F)(F)F` [Example 1-142] the value was 0.5 nM; for `Cc1cc(C(F)(F)F)ccc1-c1nc(O)nc(-c2c(C)cccc2C)n1` [Example 2-3], 14700 nM; for `CCN(Cc1ccc(Cl)c(-c2nc(O)nc(-c3ccc(OCC(C)(C)C)cc3)n2)c1)C(=O)OC(C)(C)C` [Example 1-209], 59 nM. The compound `CO[C@](C)(C(=O)NCc1ccc(Cl)c(-c2nc(O)nc(-c3ccccc3)n2)c1)C(F)(F)F` [Example 1-87] returned an IC50 of 0.8 nM.

Take `CC(C)(C(=O)NCc1ccc(Cl)c(-c2nc(O)nc(-c3cccc(C4CCC4)c3)n2)c1)C(F)(F)F` [Example 1-100]: the IC50 was determined as 0.9 nM. For the compound `CO[C@](C)(C(=O)NC(C)c1ccc(Cl)c(-c2nc(O)nc(-c3ccc(OCC(C)(C)C)cc3)n2)c1)C(F)(F)F` (single isomer, unassigned) [Example 1-201], the 50% inhibitory concentration (IC50) came to 306 nM. In turn, `CN(C)C(=O)CCc1ccc(Cl)c(-c2nc(O)nc(-c3ccc(OCC(C)(C)C)cc3)n2)c1` [Example 1-218] had a concentration for half-maximal inhibition (IC50) of 70 nM. This IC50 is about 4.4-fold lower than that of the compound before. The compound `CC(C)COc1cccc(-c2nc(O)nc(-c3cc(CNC(=O)C(C)(C)C(F)(F)F)ccc3Cl)n2)c1` [Example 1-88] displayed an IC50 of 1.2 nM. For `Oc1cccc(COc2cccc(C(F)(F)F)c2-c2nc(O)nc(-c3ccc(C#Cc4ccccc4)cc3)n2)n1` [Example 2-119] the value was 1.8 nM. For `CC(C)Cc1ccc(-c2nc(O)nc(-c3cc(CC(=O)NC(C)(C)C)ccc3Cl)n2)cc1` [Example 1-101] the value was 5.8 nM; for `Oc1nc(-c2ccc(C#Cc3ccc(C(F)(F)F)cc3)cc2)nc(-c2c(OCc3ccccn3)cccc2C(F)(F)F)n1` [Example 2-105], 18 nM.

Consider `CN(C)C(=O)c1ccc(Cl)c(-c2nc(O)nc(-c3ccc(OCC4CC4)cc3)n2)c1` [Example 1-195], for which the concentration for half-maximal inhibition (IC50) worked out at 6000 nM. With `O=C(NCc1ccc(Cl)c(-c2nc(O)nc(-c3ccccc3)n2)c1)C12CC3CC(CC(C3)C1)C2` [Example 1-65] the figure was 8.6 nM.
